Columns and labels:
Format in all cases: in vivo
[1] = tested on: redroot pigweed (Amaranthus retroflexus, AMARE); assay: Pre-emerge test, greenhouse herbicide activity screening; settings: pre-emerge; for Pre-emerge Herbicidal Activity AMARE: phytotoxicity rating 0-100 at 14 days after application; for phytotoxicity rating AMARE: 14 days after application, scale 0-100
How it was run: (§1)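 Rating: 0–100 visual injury, 14 DAA. Application: acetone, 187 l/ha, 15–1000 g ai/ha, flat-fan track sprayer with nozzle 40–45 cm above soil or canopy. Post-emerge runs used 0.25% v/v surfactant on 2–3 leaf plants.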

[2] = tested on: barnyardgrass (Echinochloa crus-galli, ECHCG); assay: as above; settings: pre-emerge; for Pre-emerge Herbicidal Activity ECHCG: phytotoxicity rating 0-100 at 14 days after application; for phytotoxicity rating ECHCG: 14 days after application, scale 0-100
How it was run: (§2)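 Herbicidal damage is scored 0 (none) to 100 (complete plant death) two weeks after a simulated field spray. Rates span 15–1000 g ai/ha, delivered in acetone at 187 l/ha. For post-emergence treatments, plants have 2–3 leaves and the spray carries 0.25% v/v non-ionic surfactant.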

[3] = tested on: green foxtail (Setaria viridis, SETVI); assay: as above; settings: pre-emerge; for Pre-emerge Herbicidal Activity SETVI: phytotoxicity rating 0-100 at 14 days after application; for phytotoxicity rating SETVI: 14 days after application, scale 0-100
How it was run: as §2

[4] = tested on: ivyleaf morningglory (Ipomoea hederacea, IPOHE); assay: as above; settings: pre-emerge; for Pre-emerge Herbicidal Activity IPOHE: phytotoxicity rating 0-100 at 14 days after application; for phytotoxicity rating IPOHE: 14 days after application, scale 0-100
How it was run: as §2

[5] = tested on: johnsongrass (Sorghum halepense, SORHA); assay: as above; settings: pre-emerge; for Pre-emerge Herbicidal Activity SORHA: phytotoxicity rating 0-100 at 14 days after application; for phytotoxicity rating SORHA: 14 days after application, scale 0-100
How it was run: as §2

[6] = tested on: lambsquarters (Chenopodium album, CHEAL); assay: as above; settings: pre-emerge; for Pre-emerge Herbicidal Activity CHEAL: phytotoxicity rating 0-100 at 14 days after application; for phytotoxicity rating CHEAL: 14 days after application, scale 0-100
How it was run: as §2

[7] = tested on: large crabgrass (Digitaria sanguinalis, DIGSA); assay: as above; settings: pre-emerge; for Pre-emerge Herbicidal Activity DIGSA: phytotoxicity rating 0-100 at 14 days after application; for phytotoxicity rating DIGSA: 14 days after application, scale 0-100
How it was run: as §2

[8] = tested on: sicklepod (Cassia obtusifolia, CASOB); assay: as above; settings: pre-emerge; for Pre-emerge Herbicidal Activity CASOB: phytotoxicity rating 0-100 at 14 days after application; for phytotoxicity rating CASOB: 14 days after application, scale 0-100
How it was run: as §2

[9] = tested on: velvetleaf (Abutilon theophrasti, ABUTH); assay: as above; settings: pre-emerge; for Pre-emerge Herbicidal Activity ABUTH: phytotoxicity rating 0-100 at 14 days after application; for phytotoxicity rating ABUTH: 14 days after application, scale 0-100
How it was run: as §2

[10] = tested on: field corn (Zea mays L., var. Dekalb 535, CORN); assay: Pre-emerge test, crop safety; settings: pre-emerge; for Pre-emerge Herbicidal Activity CORN: crop damage, phytotoxicity rating 0-100 at 14 days after application; for phytotoxicity rating CORN (crop damage): 14 days after application, scale 0-100
How it was run: as §1

[11] = tested on: upland rice (Oryza sp., var. Tebonnet, RICE); assay: Pre-emerge test, crop safety; settings: pre-emerge; for Pre-emerge Herbicidal Activity RICE: crop damage, phytotoxicity rating 0-100 at 14 days after application; for phytotoxicity rating RICE (crop damage): 14 days after application, scale 0-100
How it was run: as §1

[12] = tested on: barnyardgrass (Echinochloa crus-galli, ECHCG); assay: Post-emerge test, greenhouse herbicide activity screening; settings: post-emerge; for Post-emerge Herbicidal Activity ECHCG: phytotoxicity rating 0-100 at 14 days after application; for ECHCG phytotoxicity rating: 14 days after application, rating scale 0-100
How it was run: (§3)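 Fourteen days after spraying, crop and weed injury was graded visually from 0, no effect, to 100, every plant dead. Test substances were dissolved in acetone and applied at 15–1000 g ai/ha with a flat-fan nozzle. Application was either pre-emergence, one day after sowing, or post-emergence at the 2–3 leaf stage.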

[13] = tested on: green foxtail (Setaria viridis, SETVI); assay: as above; settings: post-emerge; for Post-emerge Herbicidal Activity SETVI: phytotoxicity rating 0-100 at 14 days after application; for SETVI phytotoxicity rating: 14 days after application, rating scale 0-100
How it was run: as §3

[14] = tested on: ivyleaf morningglory (Ipomoea hederacea, IPOHE); assay: as above; settings: post-emerge; for Post-emerge Herbicidal Activity IPOHE: phytotoxicity rating 0-100 at 14 days after application; for IPOHE phytotoxicity rating: 14 days after application, rating scale 0-100
How it was run: as §3

[15] = tested on: lambsquarters (Chenopodium album, CHEAL); assay: as above; settings: post-emerge; for Post-emerge Herbicidal Activity CHEAL: phytotoxicity rating 0-100 at 14 days after application; for CHEAL phytotoxicity rating: 14 days after application, rating scale 0-100
How it was run: as §3

[16] = tested on: large crabgrass (Digitaria sanguinalis, DIGSA); assay: as above; settings: post-emerge; for Post-emerge Herbicidal Activity DIGSA: phytotoxicity rating 0-100 at 14 days after application; for DIGSA phytotoxicity rating: 14 days after application, rating scale 0-100
How it was run: as §3

[17] = tested on: redroot pigweed (Amaranthus retroflexus, AMARE); assay: as above; settings: post-emerge; for Post-emerge Herbicidal Activity AMARE: phytotoxicity rating 0-100 at 14 days after application; for AMARE phytotoxicity rating: 14 days after application, rating scale 0-100
How it was run: as §3

[18] = tested on: sicklepod (Cassia obtusifolia, CASOB); assay: as above; settings: post-emerge; for Post-emerge Herbicidal Activity CASOB: phytotoxicity rating 0-100 at 14 days after application; for CASOB phytotoxicity rating: 14 days after application, rating scale 0-100
How it was run: as §3

[19] = tested on: velvetleaf (Abutilon theophrasti, ABUTH); assay: as above; settings: post-emerge; for Post-emerge Herbicidal Activity ABUTH: phytotoxicity rating 0-100 at 14 days after application; for ABUTH phytotoxicity rating: 14 days after application, rating scale 0-100
How it was run: as §3

[20] = tested on: field corn (Zea mays L., var. Dekalb 535, CORN); assay: Post-emerge test, crop safety; settings: post-emerge; for Post-emerge Herbicidal Activity CORN: crop damage rating 0-100 at 14 days after application; for CORN phytotoxicity rating (crop damage): 14 days after application, rating scale 0-100
How it was run: as §2

[21] = tested on: upland rice (Oryza sp., var. Tebonnet, RICE); assay: Post-emerge test, crop safety; settings: post-emerge; for Post-emerge Herbicidal Activity RICE: crop damage rating 0-100 at 14 days after application; for RICE phytotoxicity rating (crop damage): 14 days after application, rating scale 0-100
How it was run: as §2

Compound: COc1c(Cl)cc(F)c(-n2nnn(CCCF)c2=O)c1NC(=O)COCc1ccccc1 [Compound 5-28]
- Pre-emerge Herbicidal Activity AMARE ([1]; rate 63 g ai/ha): 100
- Pre-emerge Herbicidal Activity AMARE ([1]; rate 250 g ai/ha): 100
- Pre-emerge Herbicidal Activity ECHCG ([2]; rate 63 g ai/ha): 30
- Pre-emerge Herbicidal Activity ECHCG ([2]; rate 250 g ai/ha): 60
- Pre-emerge Herbicidal Activity SETVI ([3]; rate 63 g ai/ha): 50
- Pre-emerge Herbicidal Activity SETVI ([3]; rate 250 g ai/ha): 85
- Pre-emerge Herbicidal Activity IPOHE ([4]; rate 63 g ai/ha): 60
- Pre-emerge Herbicidal Activity IPOHE ([4]; rate 250 g ai/ha): 100
- Pre-emerge Herbicidal Activity SORHA ([5]; rate 63 g ai/ha): 20
- Pre-emerge Herbicidal Activity SORHA ([5]; rate 250 g ai/ha): 30
- Pre-emerge Herbicidal Activity CHEAL ([6]; rate 63 g ai/ha): 100
- Pre-emerge Herbicidal Activity CHEAL ([6]; rate 250 g ai/ha): 100
- Pre-emerge Herbicidal Activity DIGSA ([7]; rate 63 g ai/ha): 30
- Pre-emerge Herbicidal Activity DIGSA ([7]; rate 250 g ai/ha): 90
- Pre-emerge Herbicidal Activity CASOB ([8]; rate 63 g ai/ha): 100
- Pre-emerge Herbicidal Activity CASOB ([8]; rate 250 g ai/ha): 100
- Pre-emerge Herbicidal Activity ABUTH ([9]; rate 63 g ai/ha): 100
- Pre-emerge Herbicidal Activity ABUTH ([9]; rate 250 g ai/ha): 100
- Pre-emerge Herbicidal Activity CORN ([10]; rate 63 g ai/ha): 10
- Pre-emerge Herbicidal Activity CORN ([10]; rate 250 g ai/ha): 20
- Pre-emerge Herbicidal Activity RICE ([11]; rate 63 g ai/ha): 30
- Pre-emerge Herbicidal Activity RICE ([11]; rate 250 g ai/ha): 60
- Post-emerge Herbicidal Activity ECHCG ([12]; 63 g ai/ha): 0
- Post-emerge Herbicidal Activity ECHCG ([12]; 250 g ai/ha): 50
- Post-emerge Herbicidal Activity SETVI ([13]; 63 g ai/ha): 10
- Post-emerge Herbicidal Activity SETVI ([13]; 250 g ai/ha): 30
- Post-emerge Herbicidal Activity IPOHE ([14]; 63 g ai/ha): 100
- Post-emerge Herbicidal Activity IPOHE ([14]; 250 g ai/ha): 100
- Post-emerge Herbicidal Activity CHEAL ([15]; 63 g ai/ha): 100
- Post-emerge Herbicidal Activity CHEAL ([15]; 250 g ai/ha): 100
- Post-emerge Herbicidal Activity DIGSA ([16]; 63 g ai/ha): 10
- Post-emerge Herbicidal Activity DIGSA ([16]; 250 g ai/ha): 30
- Post-emerge Herbicidal Activity AMARE ([17]; 63 g ai/ha): 100
- Post-emerge Herbicidal Activity AMARE ([17]; 250 g ai/ha): 100
- Post-emerge Herbicidal Activity CASOB ([18]; 63 g ai/ha): 90
- Post-emerge Herbicidal Activity CASOB ([18]; 250 g ai/ha): 100
- Post-emerge Herbicidal Activity ABUTH ([19]; 63 g ai/ha): 100
- Post-emerge Herbicidal Activity ABUTH ([19]; 250 g ai/ha): 100
- Post-emerge Herbicidal Activity CORN ([20]; 63 g ai/ha): 25
- Post-emerge Herbicidal Activity CORN ([20]; 250 g ai/ha): 70
- Post-emerge Herbicidal Activity RICE ([21]; 63 g ai/ha): 60
- Post-emerge Herbicidal Activity RICE ([21]; 250 g ai/ha): 70

Compound: COc1c(Cl)cc(F)c(-n2c(=O)cc(C(F)(F)F)n(C)c2=O)c1NC(=O)COc1ccc(F)cc1 [2-133]
- phytotoxicity rating AMARE ([1]; 63 g ai/ha): 100
- phytotoxicity rating AMARE ([1]; 250 g ai/ha): 100
- phytotoxicity rating ECHCG ([2]; 63 g ai/ha): 65
- phytotoxicity rating ECHCG ([2]; 250 g ai/ha): 95
- phytotoxicity rating SETVI ([3]; 63 g ai/ha): 95
- phytotoxicity rating SETVI ([3]; 250 g ai/ha): 100
- phytotoxicity rating IPOHE ([4]; 63 g ai/ha): 80
- phytotoxicity rating IPOHE ([4]; 250 g ai/ha): 100
- phytotoxicity rating SORHA ([5]; 63 g ai/ha): 75
- phytotoxicity rating SORHA ([5]; 250 g ai/ha): 100
- phytotoxicity rating CHEAL ([6]; 63 g ai/ha): 100
- phytotoxicity rating CHEAL ([6]; 250 g ai/ha): 100
- phytotoxicity rating DIGSA ([7]; 63 g ai/ha): 95
- phytotoxicity rating DIGSA ([7]; 250 g ai/ha): 100
- phytotoxicity rating CASOB ([8]; 63 g ai/ha): 55
- phytotoxicity rating CASOB ([8]; 250 g ai/ha): 100
- phytotoxicity rating ABUTH ([9]; 63 g ai/ha): 100
- phytotoxicity rating ABUTH ([9]; 250 g ai/ha): 100
- phytotoxicity rating CORN (crop damage) ([10]; 63 g ai/ha): 20
- phytotoxicity rating CORN (crop damage) ([10]; 250 g ai/ha): 80
- phytotoxicity rating RICE (crop damage) ([11]; 63 g ai/ha): 70
- phytotoxicity rating RICE (crop damage) ([11]; 250 g ai/ha): 93
- ECHCG phytotoxicity rating ([12]; 63 g ai/ha): 50
- ECHCG phytotoxicity rating ([12]; 250 g ai/ha): 85
- SETVI phytotoxicity rating ([13]; 63 g ai/ha): 70
- SETVI phytotoxicity rating ([13]; 250 g ai/ha): 75
- IPOHE phytotoxicity rating ([14]; 63 g ai/ha): 90
- IPOHE phytotoxicity rating ([14]; 250 g ai/ha): 100
- CHEAL phytotoxicity rating ([15]; 63 g ai/ha): 100
- CHEAL phytotoxicity rating ([15]; 250 g ai/ha): 100
- DIGSA phytotoxicity rating ([16]; 63 g ai/ha): 30
- DIGSA phytotoxicity rating ([16]; 250 g ai/ha): 70
- AMARE phytotoxicity rating ([17]; 63 g ai/ha): 100
- AMARE phytotoxicity rating ([17]; 250 g ai/ha): 100
- CASOB phytotoxicity rating ([18]; 63 g ai/ha): 80
- CASOB phytotoxicity rating ([18]; 250 g ai/ha): 100
- ABUTH phytotoxicity rating ([19]; 63 g ai/ha): 100
- ABUTH phytotoxicity rating ([19]; 250 g ai/ha): 100
- CORN phytotoxicity rating (crop damage) ([20]; 63 g ai/ha): 70
- CORN phytotoxicity rating (crop damage) ([20]; 250 g ai/ha): 95
- RICE phytotoxicity rating (crop damage) ([21]; 63 g ai/ha): 80
- RICE phytotoxicity rating (crop damage) ([21]; 250 g ai/ha): 95

Reference: patent US6355799B1, “Substituted benzene compounds, process for their preparation, and herbicidal and defoliant compositions containing them” (ISK Americas Incorporated, priority 1997, dated 2002)
